Experimental data as given in patent US20230063794A1, “STAPLED TRIAZOLE CO-AGONISTS OF THE GLUCAGON AND GLP-1 RECEPTORS” (Merck Sharp & Dohme LLC, priority 2019, published 2023).
Starred links: 1 amine or outer side, 2 acyl side, 3 side chain; linkers in the order of their positions; H or OH if unused. Positions of bridges follow the written chain, without caps; N, C: chain ends. Non-standard residues stand in square brackets, D forms with d. Residues, ends and D or L forms follow the SMILES beside them. Groups on a side chain read outwards from the residue. Triazole bridges read from a SMILES are 1,4-linked. *: point of attachment. Lys(N3) = [N-]=[N+]=NCCCC[C@H](N)C(=O)O; γGlu = O=C(O)[C@H](CCC(=O)[*:2])N[*:1]; Palmitoyl = CCCCCCCCCCCCCCCC(=O)*; dPra = C#CC[C@@H](N)C(=O)O; Nle = CCCC[C@H](N)C(=O)O; Aib = CC(C)(N)C(=O)O

Tests used:
human GLP1R = target: T1, human GLP1R (Homo sapiens, UniProt P43220); experiment: cAMP activity assay in cells expressing human GLP1R; assay type: cell-based; settings: cAMP production, HitHunter cAMPXS, 1 hour; assay buffer with or without 20% human serum (not given)
T1 construct: expressed in transfected cells; grown under Blasticidin and Hygromycin selection
Protocol: (§1) Activity of the peptides at the Glucagon receptor (GCGR) and GLP-1 receptor (GLP1R) was measured in a cAMP activity assay.
(§2) Peptides were dissolved in 100% DMSO and serially diluted to generate 10 point titrations. The peptide solutions were then transferred into 384-well assay plates (150 nL/well). Assay ready frozen cells expressing human GLP1R or human GCGR were suspended in growth media consisting of DMEM medium (GIBCO), 10% FBS (GIBCO), 1× NEAA(GIBCO), 1× P/S (GIBCO), 10 ug/ml Blasticidin (GIBCO) and 200 μg/mL Hygromycin (GIBCO). Cells were then diluted in assay buffer consisting of PBS (GIBCO), 7.5% BSA (Perkin Elmer), 100 μM RO 20-1724 (Sigma), with or without 20% human serum (MP Biomedical). The cell suspensions (15 μL) were then added to the assay plates containing the peptide solutions (30,000 cells/well for human GCGR; 10,000 cells/well for human GLP1R). The cells were incubated for 1 hour at room temperature in the dark. Production of cAMP was determined using HitHunter™ cAMPXS kits (DiscoverX) following manufacturer protocol. The plates were incubated for overnight at room temperature in the dark. Luminescence was measured using an EnVision Multilabel plate reader (Perkin Elmer). Native GLP-1 and Glucagon (Bachem) are used as control peptides. EC50 values were calculated using uses a 4 parameter logistic fit based on the Levenberg-Marquardt algorithm.

human GCGR = target: T2, human GCGR (Homo sapiens, UniProt P47871); experiment: cAMP activity assay in cells expressing human GCGR; assay type: cell-based; settings: ratio of human GCGR EC50 to human GLP1R EC50
T2 construct: expressed in transfected cells; grown under Blasticidin and Hygromycin selection
Protocol: as §1, §2

T2 sequence (P47871 26-477): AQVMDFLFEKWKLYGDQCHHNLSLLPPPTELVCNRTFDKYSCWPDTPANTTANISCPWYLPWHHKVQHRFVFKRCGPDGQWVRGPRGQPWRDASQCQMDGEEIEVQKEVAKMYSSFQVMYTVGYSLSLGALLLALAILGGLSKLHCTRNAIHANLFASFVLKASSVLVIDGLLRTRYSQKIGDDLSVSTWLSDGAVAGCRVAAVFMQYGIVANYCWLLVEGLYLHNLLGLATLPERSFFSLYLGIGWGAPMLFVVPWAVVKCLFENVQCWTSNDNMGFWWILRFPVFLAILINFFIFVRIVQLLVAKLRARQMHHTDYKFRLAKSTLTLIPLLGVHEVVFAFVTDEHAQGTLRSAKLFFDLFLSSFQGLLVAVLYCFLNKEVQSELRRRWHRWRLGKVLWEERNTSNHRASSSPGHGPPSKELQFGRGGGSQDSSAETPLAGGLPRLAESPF
T1 sequence (P43220 24-463): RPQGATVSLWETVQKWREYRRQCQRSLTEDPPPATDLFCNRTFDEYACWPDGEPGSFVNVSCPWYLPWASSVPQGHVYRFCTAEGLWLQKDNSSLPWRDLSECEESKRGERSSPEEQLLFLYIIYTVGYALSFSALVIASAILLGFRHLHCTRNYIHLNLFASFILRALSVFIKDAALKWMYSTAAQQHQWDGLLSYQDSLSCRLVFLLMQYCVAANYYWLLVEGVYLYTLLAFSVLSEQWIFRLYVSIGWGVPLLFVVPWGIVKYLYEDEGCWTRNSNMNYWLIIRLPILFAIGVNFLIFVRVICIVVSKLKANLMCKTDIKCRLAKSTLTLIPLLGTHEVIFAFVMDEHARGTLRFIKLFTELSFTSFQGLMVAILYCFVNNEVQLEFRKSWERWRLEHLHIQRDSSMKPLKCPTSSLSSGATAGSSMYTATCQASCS

EC50 (human GLP1R) [nM]	hGCGR/hGLP1R (hTone) (human GCGR)	Compound
0.042	0.95	CCCCCCCCCCCCCCCC(=O)N[C@@H](CCC(=O)N[C@@H](CCC(=O)NCCCC[C@H](NC(=O)[C@H](CC(=O)O)NC(=O)[C@H](CO)NC(=O)[C@@H](NC(=O)[C@H](Cc1ccccc1)NC(=O)[C@@H](NC(=O)CNC(=O)[C@H](CCC(N)=O)NC(=O)[C@@H](CO)NC(=O)[C@@H](N)Cc1c[nH]cn1)[C@@H](C)O)[C@@H](C)O)C(=O)N[C@@H](CO)C(=O)N[C@@H](CCCCN)C(=O)N[C@@H](Cc1ccc(O)cc1)C(=O)N[C@@H](CC(C)C)C(=O)N[C@@H](CC(=O)O)C(=O)N[C@@H](CCC(=O)O)C(=O)N[C@@H](CCCNC(=N)N)C(=O)N[C@@H](C)C(=O)N[C@@H](C)C(=O)N[C@@H]1Cc2cn(nn2)CCCC[C@@H](C(=O)N[C@@H](Cc2c[nH]c3ccccc23)C(=O)N[C@@H](CC(C)C)C(=O)N[C@@H](CC(C)C)C(=O)N[C@@H](CC(=O)O)C(=O)N[C@H](C(N)=O)[C@@H](C)O)NC(=O)[C@H](C(C)C)NC(=O)[C@H](Cc2ccccc2)NC(=O)[C@H](CC(=O)O)NC1=O)C(=O)O)C(=O)O [compound 7] (H-H[dS]QGTFTSDK([γGlu-γGlu-Palmitoyl])SKYLDERAA[dPra]DFV[Lys(N3)]WLLDT-NH2; triazole 20-24)
0.042	1.13	CCCCCCCCCCCCCCCC(=O)N[C@@H](CCC(=O)N[C@@H](CCC(=O)NCCCC[C@H](NC(=O)[C@H](CC(=O)O)NC(=O)[C@H](CO)NC(=O)[C@@H](NC(=O)[C@H](Cc1ccccc1)NC(=O)[C@@H](NC(=O)CNC(=O)[C@H](CCC(N)=O)NC(=O)C(C)(C)NC(=O)[C@@H](N)Cc1c[nH]cn1)[C@@H](C)O)[C@@H](C)O)C(=O)N[C@@H](CO)C(=O)N[C@@H](CCCCN)C(=O)N[C@@H](Cc1ccc(O)cc1)C(=O)N[C@@H](CC(C)C)C(=O)N[C@@H](CC(=O)O)C(=O)N[C@@H]1Cc2cn(nn2)CCCC[C@@H](C(=O)N[C@@H](CC(=O)O)C(=O)N[C@@H](Cc2ccccc2)C(=O)N[C@H](C(=O)N[C@@H](CCC(N)=O)C(=O)N[C@@H](Cc2c[nH]c3ccccc23)C(=O)N[C@@H](CC(C)C)C(=O)N[C@@H](CCCC)C(=O)N[C@@H](CC(=O)O)C(=O)N[C@H](C(N)=O)[C@@H](C)O)C(C)C)NC(=O)[C@H](C)NC(=O)[C@H](C)NC(=O)[C@H](CCCNC(=N)N)NC1=O)C(=O)O)C(=O)O [compound 16] (H-H[Aib]QGTFTSDK([γGlu-γGlu-Palmitoyl])SKYLD[dPra]RAA[Lys(N3)]DFVQWL[Nle]DT-NH2; triazole 16-20; N-terminus assumed)
–	0.54	CCCCCCCCCCCCCCCC(=O)N[C@@H](CCC(=O)N[C@@H](CCC(=O)NCCCC[C@H](NC(=O)[C@H](CC(=O)O)NC(=O)[C@H](CO)NC(=O)[C@@H](NC(=O)[C@H](Cc1ccccc1)NC(=O)[C@@H](NC(=O)CNC(=O)[C@H](CCC(N)=O)NC(=O)[C@@H](CO)NC(=O)[C@@H](N)Cc1c[nH]cn1)[C@@H](C)O)[C@@H](C)O)C(=O)N[C@@H](CO)C(=O)N[C@@H](CCCCN)C(=O)N[C@@H](Cc1ccc(O)cc1)C(=O)N[C@@H](CC(C)C)C(=O)N[C@@H](CC(=O)O)C(=O)N[C@@H](C)C(=O)N[C@@H](CCCNC(=N)N)C(=O)N[C@@H](C)C(=O)N[C@@H](C)C(=O)N[C@@H](CCC(N)=O)C(=O)N[C@@H](CC(=O)O)C(=O)N[C@@H](Cc1ccccc1)C(=O)N[C@H](C(=O)N[C@H]1CCCCn2cc(nn2)C[C@H](C(=O)N[C@H](C(N)=O)[C@@H](C)O)NC(=O)[C@H](CC(C)C)NC(=O)[C@H](CC(C)C)NC(=O)[C@H](Cc2c[nH]c3ccccc23)NC1=O)C(C)C)C(=O)O)C(=O)O [compound 24] (H-H[dS]QGTFTSDK([γGlu-γGlu-Palmitoyl])SKYLDARAAQDFV[Lys(N3)]WLL[dPra]T-NH2; triazole 24-28; N-terminus assumed)
